According to patent US8598383B2, “Pharmaceutical composition for treating or preventing degenerative and inflammatory diseases” (Neurotech Pharmaceuticals Co., Ltd., priority 2006, dated 2013):

Assays:
[1] = test system: TNF-α production in BV2 cell line; experiment: Suppressing effect on production of cytokine (ELISA), TNF-α; assay type: cell-based; settings: LPS + 100 uM of sample, 24 hours; for TNF-α % Inhibition: level in medium, 100 µM; for inhibition at 100 µM: Mus musculus, BV-2, level in medium
Procedure: (§1) Effects of the 2-hydroxybenzoic acid derivatives on production of cytokine in BV2 cell line were evaluated. 24-well plate was inoculated with 1×10^6 cells of BV2 cell line, and treated with both LPS, inflammation-inducing material, and 100 uM of sample (the 2-hydroxybenzoic acid derivative or comparative drug), together. After 24 hours of incubation, culture medium was collected. The levels of cytokines, TNF-α and IL-6, in the medium were evaluated by ELISA method.

[2] = test system: IL-6 production in BV2 cell line; experiment: Suppressing effect on production of cytokine (ELISA), IL-6; assay type: cell-based; settings: LPS + 100 uM of sample, 24 hours; for inhibition at 100 µM: Mus musculus, BV-2, level in medium; for IL-6 % Inhibition: level in medium
Procedure: as §1

MPO (myeloperoxidase) = settings: cited from earlier work; for activity of MPO: in vivo
BV2 microglia cell line = experiment: Suppressing effect on production of NO (LPS, Griess reagent); assay type: cell-based; settings: Mus musculus, BV-2, LPS-treated BV2 microglia, 24 hours incubation
Procedure: Inhibiting effect of the 2-hydroxybenzoic acid derivative according to the present invention on NO, inflammatory factor intervening inflammation reaction was evaluated. BV2 microglia cell line was treated with lipopolysaccharide (LPS), a inflammation-inducing material of bacteria toxin, with inclusion of 10 uM, 30 uM or 100 uM of the present compound. After 24 hours of incubation, 50 ul of culture medium was collected in 96-well plate. Then, 50 ul of Griess reagent was added and incubated for 10 minutes at room temperature. The absorbance was evaluated by ELISA reader at 540 nm.

[3] = Single-dose toxicity test; assay type: in vivo
Procedure: FIG. 32 is results of single dose toxicity testing of some 2-hydroxybenzoic acid derivatives according to the present invention.
Single-dose toxicities of the 2-hydroxybenzoic acid derivatives were evaluated.

[4] = test system: collagen-induced arthritis; experiment: Collagen-induced arthritis model (arthritic index); assay type: in vivo, mouse
Procedure: FIG. 15 is results showing efficacy through arthritis animal model induced by collagen. 25 mg/kg of compound 2, 3 or 18, or methotrexate (control, MTX, 1 mg/kg/week) was intraperitoneally injected after administration of collagen.
FIG. 16 is results showing efficacy of compounds 6 and 11 through arthritis animal model induced by collagen. Collagen was intradermally injected two times with 2 week-interval. One week later, compound 6, compound 11 and methotrexate (control) were intraperitoneally injected. Then, the animals were observed everyday for 2-3 weeks, and results was evaluated by arthritis index.
To evaluate the efficacy of the 2-hydroxybenzoic acid derivative, collagen-induced arthritis model (rheumarthritis animal model) was used. Bovine type II collagen was mixed with complete Freund's adjuvant to make an emulsion, and the emulsion was intradermally injected into the origin site of 8˜10 week-old DBA/1LacJ mouse tail. Intradermal boosting was performed by the same method 2 weeks later. 25 mg/kg/day of compounds 2, 3 and 18, 1 mg/kg/week of methotrexate (comparative example) or 10% vehicle (control) were intraperitoneally injected one week after the second intradermal injection of collagen (FIG. 15). Pictures of foot edema of normal rat (sham), collagen-administered rat (collagen) and compound 18-administered rat (compound 18, 25 mg/kg/day injection) were shown in FIG. 14.
In addition, 50 mg/kg/day of compounds 6 and 11, and 5 mg/kg/2 days of methotrexate (comparative example) were intraperitoneally injected. Phosphate buffered saline was injected as control (FIG. 16). For 2˜3 weeks, the degree of arthritis was observed everyday, and the result was evaluated according to the below arthritic index using edema.
4 paws were evaluated as from 0 to 4 point, Total points: 16

[5] = test system: TNF-alpha gene expression in BV2 cell line; experiment: Suppressing effect on gene expression (RT-PCR), TNF-alpha; assay type: cell-based; settings: gene expression vs LPS control, BV2, 24 hours; for inhibition at 100 µM: Mus musculus, BV-2, 24 h
Procedure: (§2) Effects of the 2-hydroxybenzoic acid derivatives on iNOS gene expression in BV2 cell line were evaluated. 100 mm dish was inoculated with 1×10^6 cells of BV2 cell line, and treated with both LPS, inflammation-inducing material, and 1˜100 uM of the 2-hydroxybenzoic acid derivative of the present invention, together, in regular concentration interval. After 24 hours of incubation, RNA was extracted. Extracted RNA was used in reverse transcription and polymerase chain reaction, and expression patterns of TNF-alpha, IL-1beta and iNOS were compared.

[6] = test system: IL-1beta gene expression in BV2 cell line; experiment: Suppressing effect on gene expression (RT-PCR), IL-1beta; assay type: cell-based; settings: Mus musculus, BV-2, 24 h, gene expression vs LPS control, BV2, 24 hours
Procedure: as §2

[7] = test system: iNOS gene expression in BV2 cell line; experiment: Suppressing effect on gene expression (RT-PCR), iNOS; assay type: cell-based; settings: Mus musculus, BV-2, 24 h, gene expression vs LPS control, BV2, 24 hours
Procedure: as §2

DSS-induced colitis = experiment: 5% dextran sulfate sodium (DSS) inflammatory intestinal disease model; assay type: in vivo, mouse; settings: vs DSS only; compound 18 25 mg/kg oral
Procedure: FIG. 17 is results showing efficacy through 5% dextran sulfate sodium (DSS) model, inflammatory intestinal disease animal model. After treatment of DSS, 10, 25 or 50 mg/kg of compound 18 suspended in 10% vehicle was orally administered. Sham means colon of normal mouse, DSS means colon mouse treated with 5% DSS. The others are pictures of colon of mice administered with compound 18 at indicated dose.
FIG. 20 is an efficacy test result of compound 18 using DSS. After treatment of DSS, compound 18 (25 mg/kg) suspended in 10% vehicle was orally administered. After that, bloody excrement by colon injury, diarrhea and the degree of dirtiness were evaluated as feces score.
5% dextran sulfate sodium (DSS) model was used as inflammatory intestinal disease animal model. 5% DSS mixed with water was orally administered. 5% DSS model causes damage to epithelial cell, and ulcer in left colon and the decrease of colon length are mainly observed in the model. This model is simple and reproductive, and can regulate the degree of inflammation according to dose. Therefore, this model is often used for evaluating drug candidates.
DSS is continuously administered in water bottle. The 2-hydroxybenzoic acid derivative was suspended in 10% vehicle, and orally administered.

Question: What does the source list for `CC(=O)Oc1ccccc1C(=O)O` [Aspirin, acetylsalicylic acid, reference compound]?
Answer: TNF-α % Inhibition [1]: No effect; TNF-α % Inhibition ([1]; listed as aspirin): did not showing reducing effect; inhibition at 100 µM [2]: 22.2%; IL-6 % Inhibition [2]: little reduced

Question: Which “TNF-α % Inhibition” value [1] does the source give for `CC(C)Cc1ccc(C(C)C(=O)O)cc1` (stereo not shown) [Ibuprofen, reference compound] here?
Answer: No effect

Question: And the “TNF-α % Inhibition” value ([1]; listed as ibuprofen)?
Answer: did not showing reducing effect

Question: And the “IL-6 % Inhibition” value ([2]; 100 µM)?
Answer: No effect

Question: What about the “IL-6 % Inhibition” value ([2]; listed as ibuprofen, 100 µM) of the same compound?
Answer: little reduced

Question: Which “activity of MPO” value (MPO (myeloperoxidase)) does the source give for `CC(c1cc2ccccc2s1)N(O)C(N)=O` (stereo not shown) [Zileuton] here?
Answer: decreased the activity of MPO

Question: Which IC50 (BV2 microglia cell line) does the source give for `O=C(O)c1cc(NCCc2ccccc2)ccc1O` [compound 1, 2-hydroxy-5-phenethylamino-benzoic acid] here?
Answer: 183 µM

Question: Which inhibition at 100 µM [1] does the source give for `O=C(O)c1cc(NCCc2cccc(C(F)(F)F)c2)ccc1O` [compound 3, 2-hydroxy-5-[2-(3-trifluoromethyl-phenyl)-ethylamino]-benzoic acid] here?
Answer: 31.9%

Question: What about the inhibition at 100 µM [2] of the same compound?
Answer: 33.1%

Question: What about the “single-dose toxicity, finding in words” value ([3]; single dose) of the same compound?
Answer: high toxicity or dose-independent toxicity

Question: And the arthritic index ([4]; 25 mg/kg/day intraperitoneal)?
Answer: apparent reducing effect

Question: Which results are given for `O=C(O)c1cc(NCCc2cc(C(F)(F)F)cc(C(F)(F)F)c2)ccc1O` [compound 4, 5-[2-(3,5-bis-trifluoromethyl-phenyl)-ethylamino]-2-hydroxy-benzoic acid]?
Answer: IC50 (BV2 microglia cell line): 6.25 µM; inhibition at 100 µM [1]: 18.7%; single-dose toxicity, finding in words ([3]; mouse, in vivo): caused sudden death of mouse at 3 g/kg

Question: Which inhibition at 100 µM [5] does the source give for `O=C(O)c1cc(NCCc2ccccc2[N+](=O)[O-])ccc1O` [compound 5, 2-hydroxy-5-[2-(2-nitro-phenyl)-ethylamino]-benzoic acid] here?
Answer: 38.7%

Question: What about the inhibition at 100 µM [6] of the same compound?
Answer: 67.7%

Question: With `O=C(O)c1cc(NCCc2ccc(Cl)cc2)ccc1O` [compound 6, 5-[2-(4-chloro-phenyl)-ethylamino]-2-hydroxy-benzoic acid] as the compound, how does the arthritic index ([4]; 50 mg/kg/day intraperitoneal) read?
Answer: apparent reducing effect

Question: For `O=C(O)c1cc(NCCc2ccc(Cl)c(Cl)c2)ccc1O` [compound 8, 5-[2-(3,4-dichloro-phenyl)-ethylamino]-2-hydroxy-benzoic acid], which inhibition at 100 µM [5] is on record?
Answer: 77%

Question: And the “% Inhibition (in 100 uM) TNF-alpha” value [5]?
Answer: 77.1%

Question: What about the inhibition at 100 µM [6] of the same compound?
Answer: > 50%

Question: For `O=C(O)c1cc(NCCc2ccc(F)cc2C(F)(F)F)ccc1O` [compound 9, 5-[2-(4-fluoro-2-trifluoromethyl-phenyl)-ethylamino]-2-hydroxy-benzoic acid], which IC50 (BV2 microglia cell line) is on record?
Answer: 1.79 µM

Question: What about the inhibition at 100 µM [5] of the same compound?
Answer: 61.7%

Question: What about the “% Inhibition (in 100 uM) TNF-alpha” value [5] of the same compound?
Answer: 61.7%

Question: What about the inhibition at 100 µM [7] of the same compound?
Answer: 17.8%

Question: For `O=C(O)c1cc(NCCc2ccc(C(F)(F)F)cc2F)ccc1O` [compound 10, 5-[2-(2-fluoro-4-trifluoromethyl-phenyl)-ethylamino]-2-hydroxy-benzoic acid], which IC50 (BV2 microglia cell line) is on record?
Answer: 20.7 µM

Question: What does the source list for `COc1ccc(CCNc2ccc(O)c(C(=O)O)c2)cc1` [compound 11, 2-hydroxy-5-[2-(4-methoxy-phenyl)-ethylamino]-benzoic acid]?
Answer: IC50 (BV2 microglia cell line): 132 µM; arthritic index ([4]; 50 mg/kg/day intraperitoneal): apparent reducing effect

Question: Which results are given for `Cc1ccccc1CCNc1ccc(O)c(C(=O)O)c1` [compound 12, 2-hydroxy-5-(2-o-tolyl-ethylamino)-benzoic acid]?
Answer: inhibition at 100 µM [6]: 41.8%; inhibition at 100 µM [7]: 43.7%

Question: For `O=C(O)c1cc(NCCCc2ccccc2)ccc1O` [compound 13, 2-hydroxy-5-(3-phenyl-propylamino)-benzoic acid], which inhibition at 100 µM [5] is on record?
Answer: 43%

Question: And the inhibition at 100 µM [7]?
Answer: 15.5%

Question: For `O=C(O)c1cc(NCCCc2ccc(C(F)(F)F)cc2)ccc1O` [compound 14, 2-hydroxy-5-[3-(4-trifluoromethyl-phenyl)-propylamino]-benzoic acid], which inhibition at 100 µM [5] is on record?
Answer: 38.9%

Question: What about the inhibition at 100 µM [7] of the same compound?
Answer: 44.3%

Question: What about the inhibition at 100 µM [1] of the same compound?
Answer: 62.6%

Question: What about the “single-dose toxicity, finding in words” value ([3]; single dose) of the same compound?
Answer: high toxicity or dose-independent toxicity

Question: Which inhibition at 100 µM [5] does the source give for `O=C(O)c1cc(NCCCc2ccc(F)cc2)ccc1O` [compound 15, 5-[3-(4-fluoro-phenyl)-propylamino]-2-hydroxy-benzoic acid] here?
Answer: 37.4%

Question: What about the inhibition at 100 µM [6] of the same compound?
Answer: 35.1%

Question: Which inhibition at 100 µM [5] does the source give for `Cc1ccc(CCCNc2ccc(O)c(C(=O)O)c2)cc1` [compound 17, 2-hydroxy-5-(3-p-tolyl-propylamino)-benzoic acid] here?
Answer: 20.8%

Question: Which LD50 ([3]; mouse, in vivo, single dose) does the source give for `O=C(O)c1cc(NCCc2ccccc2Cl)ccc1O` [compound 19, 5-[2-(2-chloro-phenyl)-ethylamino]-2-hydroxy-benzoic acid] here?
Answer: 500 to 1000 mg/kg

Question: Which results are given for `CS(=O)(=O)Nc1ccc([N+](=O)[O-])cc1Oc1ccccc1` [nimesulide]?
Answer: protective effect in intestinal damage animal models (MPO (myeloperoxidase); acetic acid-induced IBD and LTB4-induced IBD): showed protective effect; activity of MPO (MPO (myeloperoxidase)): excessively suppressed the activity of MPO

Question: What does the source list for `O=C(O)c1cc(/N=N/c2ccc(S(=O)(=O)Nc3ccccn3)cc2)ccc1O` [sulfasalazine, reference compound]?
Answer: feces score (bloody excrement, diarrhea, dirtiness) (DSS-induced colitis): significantly decreased feces score; activity of MPO (MPO (myeloperoxidase)): decreased the activity of MPO
